Test results published in the supplement of paper PMC10307832.

Columns and labels:
Assay in all cases: relative viability (nuclei count vs DMSO), 5 days (fraction); higher = more cells survive
[1] = compound: COc1cc(-c2nn([C@H]3CC[C@H](N4CCN(C(C)=O)CC4)CC3)c3ncnc(N)c23)ccc1NC(=O)c1cc2ccccc2n1C + CC(=O)Nc1cccc(-n2c(=O)n(C3CC3)c(=O)c3c(Nc4ccc(I)cc4F)n(C)c(=O)c(C)c32)c1 [Trametinib] (partner 0.02 µM)
Summary of the method: (§1)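 Relative viability is defined as nuclei in treated wells over nuclei in vehicle wells. Duplicate plates were run and medians reported. Lung cancer cell lines in 1536-well plates were dosed by pin tool one day after seeding, with one drug or with a fixed anchor-drug dose plus five library-drug doses (not always all listed) in √10 steps, and nuclei were counted after 5 days.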

Midostaurin + Crizotinib = compound: CO[C@@H]1[C@H](N(C)C(=O)c2ccccc2)C[C@H]2O[C@]1(C)n1c3ccccc3c3c4c(c5c6ccccc6n2c5c31)C(=O)NC4 [Midostaurin] + C[C@@H](Oc1cc(-c2cnn(C3CCNCC3)c2)cnc1N)c1c(Cl)ccc(F)c1Cl [Crizotinib] (partner 1 µM)
Summary of the method: as §1

[2] = compound: COc1cc(-c2nn([C@H]3CC[C@H](N4CCN(C(C)=O)CC4)CC3)c3ncnc(N)c23)ccc1NC(=O)c1cc2ccccc2n1C + Nc1nc2[nH]cc(CCc3ccc(C(=O)N[C@@H](CCC(=O)O)C(=O)O)cc3)c2c(=O)[nH]1 [Pemetrexed] (partner 0.2 µM)
Summary of the method: as §1

Midostaurin + Foretinib = compound: CO[C@@H]1[C@H](N(C)C(=O)c2ccccc2)C[C@H]2O[C@]1(C)n1c3ccccc3c3c4c(c5c6ccccc6n2c5c31)C(=O)NC4 [Midostaurin] + COc1cc2c(Oc3ccc(NC(=O)C4(C(=O)Nc5ccc(F)cc5)CC4)cc3F)ccnc2cc1OCCCN1CCOCC1 [Foretinib] (partner 0.25 µM)
Summary of the method: as §1

[3] = compound: COc1cc(-c2nn([C@H]3CC[C@H](N4CCN(C(C)=O)CC4)CC3)c3ncnc(N)c23)ccc1NC(=O)c1cc2ccccc2n1C + CS(=O)(=O)N1CCN(Cc2cc3nc(-c4cccc5[nH]ncc45)nc(N4CCOCC4)c3s2)CC1 [Pictilisib] (partner 1 µM)
Summary of the method: as §1

| Cell Line | relative viability ([1]; first compound 0.0128 µM) | relative viability ([1]; first compound 0.04048 µM) | relative viability ([1]; first compound 0.128 µM) | relative viability ([1]; first compound 1.28 µM) | relative viability (Midostaurin + Crizotinib; first compound 0.01 µM) | relative viability (Midostaurin + Crizotinib; first compound 0.03162 µM) | relative viability (Midostaurin + Crizotinib; first compound 0.1 µM) | relative viability (Midostaurin + Crizotinib; first compound 0.3162 µM) | relative viability ([2]; first compound 0.0128 µM) | relative viability ([2]; first compound 0.04048 µM) | relative viability ([2]; first compound 0.128 µM) | relative viability ([2]; first compound 1.28 µM) | relative viability (Midostaurin + Foretinib; first compound 0.01 µM) | relative viability (Midostaurin + Foretinib; first compound 0.03162 µM) | relative viability (Midostaurin + Foretinib; first compound 0.1 µM) | relative viability (Midostaurin + Foretinib; first compound 0.3162 µM) | relative viability ([3]; first compound 0.0128 µM) | relative viability ([3]; first compound 0.04048 µM) | relative viability ([3]; first compound 0.128 µM) | relative viability ([3]; first compound 1.28 µM) |
| --- | --- | --- | --- | --- | --- | --- | --- | --- | --- | --- | --- | --- | --- | --- | --- | --- | --- | --- | --- | --- |
| LU99A | 0.578 | 0.288 | 0.529 | 0.489 | 0.603 | 0.634 | 0.541 | 0.533 | 0.162 | 0.225 | 0.169 | 0.252 | 0.708 | 0.854 | 0.695 | 0.783 | 0.357 | 0.385 | 0.391 | 0.326 |
| ABC-1 | – | – | – | – | 0.981 | 1.28 | 1.12 | 0.582 | – | – | – | – | 1.03 | 1.14 | 0.828 | 1.11 | 0.805 | 0.648 | 0.613 | 0.631 |
| NCI-H1299 | – | – | – | – | 0.929 | 0.914 | 0.941 | 0.86 | – | – | – | – | 1.07 | 1.04 | 1.05 | 0.976 | 0.681 | 0.806 | 0.668 | 0.385 |
| EBC-1 | – | – | – | – | 0.164 | 0.231 | 0.197 | 0.2 | – | – | – | – | 0.104 | 0.103 | 0.112 | 0.102 | 0.407 | 0.447 | 0.416 | 0.393 |
| NCI-H1648 | 0.478 | 0.311 | 0.386 | 0.293 | – | – | – | – | 0.92 | 0.738 | 0.857 | 0.646 | – | – | – | – | – | – | – | – |
